Assay results published in patent publication US8349880B2, “Bicyclic compounds for the reduction of beta-amyloid production” (Bristol-Myers Squibb Company, priority 2009, dated 2013).

system: Aβ1-42 production; assay: Cellular assay for inhibition of Aβ1-42 production (H4 APP751 SWE clone 8.20); type: cell-based; conditions: 19 h, H4 APP751 SWE clone 8.20 cells, 19 h incubation; read-out: Activity Rating (Aβ42 cellular IC50, given as a number)
Outline: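 Aβ42 level read with antibodies 565, against the Aβ42 neoepitope, and N-terminal 26D6, incubated overnight at 4° C, after exposure of H4 APP751 SWE clone 8.20 cells to compound for 19 h at 37° C. Medium was DMEM plus 0.0125% BSA, 1.5×10^4 cells/well. IC50 values come from curve fitting.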

Row | SMILES | IC50
1 | COc1cc(Nc2nc3c(s2)CCCC3c2ccccc2)ccc1-n1cnc(C)n1 (centres unmarked) [Example 67, N-(3-methoxy-4-(3-methyl-1H-1,2,4-triazol-1-yl)phenyl)-4-phenyl-4,5,6,7-tetrahydrobenzo[d]thiazol-2-amine] | 19 nM
2 | COc1cc(Nc2nc3c(s2)CCCC3(C)c2ccccc2)ccc1-n1cnc(Cl)c1 (centres unmarked) [Example 73, N-(4-(4-chloro-1H-imidazol-1-yl)-3-methoxyphenyl)-4-methyl-4-phenyl-4,5,6,7-tetrahydrobenzo[d]thiazol-2-amine 2,2,2-trifluoroacetate] | 140 nM
3 | COc1cc(Nc2nc3c(s2)CCCC3(N)c2ccccc2)ccc1-n1cnc(C)n1 (centres unmarked) [Example 82, N2-(3-methoxy-4-(3-methyl-1H-1,2,4-triazol-1-yl)phenyl)-4-phenyl-4,5,6,7-tetrahydrobenzo[d]thiazole-2,4-diamine] | 190 nM

same assay, conditions: 19 h, H4 APP751 SWE clone 8.20 cells, 19 h incubation; read-out: Activity Rating (based on Aβ42 cellular IC50 values)

Row | SMILES | IC50
4 | COc1cc(Nc2nc3n(n2)CCCCC3c2ccc(F)cc2)ccc1-c1cnnc(C)c1 (centres unmarked) [Example 47, 9-(4-fluorophenyl)-N-(3-methoxy-4-(6-methylpyridazin-4-yl)phenyl)-6,7,8,9-tetrahydro-5H-[1,2,4]triazolo[1,5-a]azepin-2-amine] | 10 to 100 nM
5 | Fc1ccc(C2CCCCn3nc(Nc4cc(F)c(-n5cnc(Cl)c5)c(F)c4)nc32)cc1 (centres unmarked) [Example 48, N-(4-(4-chloro-1H-imidazol-1-yl)-3,5-difluorophenyl)-9-(4-fluorophenyl)-6,7,8,9-tetrahydro-5H-[1,2,4]triazolo[1,5-a]azepin-2-amine] | < 10 nM
6 | COc1cc(Nc2nc3n(n2)CCCCC3c2ccc(F)cc2)cc(F)c1-n1cnc(Cl)c1 (centres unmarked) [Example 49, N-(4-(4-chloro-1H-imidazol-1-yl)-3-fluoro-5-methoxyphenyl)-9-(4-fluorophenyl)-6,7,8,9-tetrahydro-5H-[1,2,4]triazolo[1,5-a]azepin-2-amine] | < 10 nM
7 | COc1cc(Nc2nc3n(n2)CCCCC3c2cc(F)c(F)c(F)c2)ccc1-n1cnc(Cl)c1 (centres unmarked) [Example 50, N-(4-(4-chloro-1H-imidazol-1-yl)-3-methoxyphenyl)-9-(3,4,5-trifluorophenyl)-6,7,8,9-tetrahydro-5H-[1,2,4]triazolo[1,5-a]azepin-2-amine] | < 10 nM
8 | COc1cc(Nc2nc3n(n2)CCCCC3c2cccc(Cl)c2)ccc1-n1cnc(Cl)c1 (centres unmarked) [Example 53, N-(4-(4-chloro-1H-imidazol-1-yl)-3-methoxyphenyl)-9-(3-chlorophenyl)-6,7,8,9-tetrahydro-5H-[1,2,4]triazolo azepin-2-amine] | < 10 nM
9 | COc1cc(Nc2nc3n(n2)CCCCC3c2ccccc2F)ccc1-n1cnc(Cl)c1 (centres unmarked) [Example 56, N-(4-(4-chloro-1H-imidazol-1-yl)-3-methoxyphenyl)-9-(2-fluorophenyl)-6,7,8,9-tetrahydro-5H-[1,2,4]triazolo[1,5-a]azepin-2-amine] | < 10 nM
10 | COc1cc(Nc2nc3n(n2)CCCCC3c2ccc(C#N)cc2)ccc1-n1cnc(Cl)c1 (centres unmarked) [Example 57, 4-(2-(4-(4-chloro-1H-imidazol-1-yl)-3-methoxyphenylamino)-6,7,8,9-tetrahydro-5H-[1,2,4]triazolo[1,5-a]azepin-9-yl)benzonitrile] | 10 to 100 nM
11 | COc1cc(Nc2nc3n(n2)CCCCC3c2ccc(F)cc2)ccc1-c1nc(C)no1 (centres unmarked) [Example 60, 9-(4-fluorophenyl)-N-(3-methoxy-4-(3-methyl-1,2,4-oxadiazol-5-yl)phenyl)-6,7,8,9-tetrahydro-5H-[1,2,4]triazolo[1,5-a]azepin-2-amine] | 100 to 1000 nM
12 | COc1cc(Nc2nc3n(n2)CCCCC3c2ccc(F)cc2)ccc1-c1cc(C)no1 (centres unmarked) [Example 61, 9-(4-fluorophenyl)-N-(3-methoxy-4-(3-methylisoxazol-5-yl)phenyl)-6,7,8,9-tetrahydro-5H-[1,2,4]triazolo[1,5-a]azepin-2-amine] | 100 to 1000 nM
13 | COc1cc(Nc2nc3c(s2)CCCC3c2ccccc2)ccc1-n1cnc(Cl)c1 (centres unmarked) [Example 68, N-(4-(4-chloro-1H-imidazol-1-yl)-3-methoxyphenyl)-4-phenyl-4,5,6,7-tetrahydrobenzo[d]thiazol-2-amine] | 10 to 100 nM
14 | COc1cc(Nc2nc3c(s2)CCCC3c2ccccc2)ccc1-n1cnc(C)c1 (centres unmarked) [Example 71, N-(3-methoxy-4-(4-methyl-1H-imidazol-1-yl)phenyl)-4-phenyl-4,5,6,7-tetrahydrobenzo[d]thiazol-2-amine 2,2,2-trifluoroacetate] | 10 to 100 nM
15 | COc1cc(Nc2nc3c(s2)CCCC3c2ccccc2)ccc1-c1ccnc(C)c1 (centres unmarked) [Example 72, N-(3-methoxy-4-(2-methylpyridin-4-yl)phenyl)-4-phenyl-4,5,6,7-tetrahydrobenzo[d]thiazol-2-amine 2,2,2-trifluoroacetate] | 10 to 100 nM
16 | COc1cc(Nc2nc3c(s2)CC2(CC3c3ccc(F)cc3)OCCO2)ccc1-n1cnc(Cl)c1 (centres unmarked) [Example 74, N-(4-(4-chloro-1H-imidazol-1-yl)-3-methoxyphenyl)-4-(4-fluorophenyl)-5,7-dihydro-4H-spiro[benzo[d]thiazole-6,2′-[1,3]dioxolan]-2-amine] | 10 to 100 nM
17 | COc1cc(Nc2nc3c(s2)CC(=O)CC3c2ccc(F)cc2)ccc1-n1cnc(Cl)c1 (centres unmarked) [Example 75, 2-(4-(4-chloro-1H-imidazol-1-yl)-3-methoxyphenylamino)-4-(4-fluorophenyl)-4,5-dihydrobenzo[d]thiazol-6(7H)-one] | 10 to 100 nM
18 | COc1cc(Nc2nc3c(s2)CC(O)CC3c2ccc(F)cc2)ccc1-n1cnc(Cl)c1 (centres unmarked) [Example 76, 2-(4-(4-chloro-1H-imidazol-1-yl)-3-methoxyphenylamino)-4-(4-fluorophenyl)-4,5,6,7-tetrahydrobenzo[d]thiazol-6-ol] | < 10 nM
19 | COc1cc(Nc2nc3c(s2)CC(N)CC3c2ccc(F)cc2)ccc1-n1cnc(Cl)c1 (centres unmarked) [Example 77, N2-(4-(4-chloro-1H-imidazol-1-yl)-3-methoxyphenyl)-4-(4-fluorophenyl)-4,5,6,7-tetrahydrobenzo[d]thiazole-2,6-diamine] | 100 to 1000 nM
20 | COc1cc(Nc2nc3c(s2)CC(N(C)C)CC3c2ccc(F)cc2)ccc1-n1cnc(Cl)c1 (centres unmarked) [Example 78, N2-(4-(4-chloro-1H-imidazol-1-yl)-3-methoxyphenyl)-4-(4-fluorophenyl)-N6,N6-dimethyl-4,5,6,7-tetrahydrobenzo[d]thiazole-2,6-diamine] | 100 to 1000 nM
21 | CNC1Cc2sc(Nc3ccc(-n4cnc(Cl)c4)c(OC)c3)nc2C(c2ccc(F)cc2)C1 (centres unmarked) [Example 79, N2-(4-(4-chloro-1H-imidazol-1-yl)-3-methoxyphenyl)-4-(4-fluorophenyl)-N-6-methyl-4,5,6,7-tetrahydrobenzo[d]thiazole-2,6-diamine] | 10 to 100 nM
22 | COc1cc(Nc2nc3c(s2)CCCC3Cc2ccccc2)ccc1-n1cnc(Cl)c1 (centres unmarked) [Example 80, 4-benzyl-N-(4-(4-chloro-1H-imidazol-1-yl)-3-methoxyphenyl)-4,5,6,7-tetrahydrobenzo[d]thiazol-2-amine 2,2,2-trifluoroacetate] | 100 to 1000 nM
23 | COc1cc(Nc2nc3c(s2)CCCC3(O)c2ccccc2)ccc1-n1cnc(C)n1 (centres unmarked) [Example 81, 2-(3-methoxy-4-(3-methyl-1H-1,2,4-triazol-1-yl)phenylamino)-4-phenyl-4,5,6,7-tetrahydrobenzo[d]thiazol-4-ol] | 10 to 100 nM
